Among the data in patent publication EP4806898A1, “HETEROARYL DERIVATIVE COMPOUND AND USE THEREOF” (Voronoi Inc., priority 2023, dated 2025) are GI50 and ΔTm values, retold here.

One test relates to UWB1.289 cells. Put plainly: Cell proliferation inhibitory activity in BRCA1/2-mutant or HRD-positive cells (Cell Titer-Glo). It is filed as cell-based. As to conditions: UWB1289; UWB1.289 cells, 144 hours after compound treatment, Cell Titer-Glo, 1.5 nM to 10 µM; read-out: GI50 UWB1.289 BRCA1 mut. Put shortly:
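GI50 from CellTiter-Glo luminescence after 144 h compound exposure at 37 °C. Cells seeded at 1,000 per well in MEBM/RPMI1640 mix 16–24 h beforehand; […] from 10 µM down to 1.5 nM final (3-fold steps).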
In general terms: Cellular ATP, detected with luciferase, serves as a proxy for viable cell number.

The target in another test is T1, recombinant USP1 protein (Homo sapiens, UniProt O94782, DEL125-138/DEL229-408/DEL608-737).
T1 sequence (O94782 with tags, fused parts or gaps DEL125-138/DEL229-408/DEL608-737): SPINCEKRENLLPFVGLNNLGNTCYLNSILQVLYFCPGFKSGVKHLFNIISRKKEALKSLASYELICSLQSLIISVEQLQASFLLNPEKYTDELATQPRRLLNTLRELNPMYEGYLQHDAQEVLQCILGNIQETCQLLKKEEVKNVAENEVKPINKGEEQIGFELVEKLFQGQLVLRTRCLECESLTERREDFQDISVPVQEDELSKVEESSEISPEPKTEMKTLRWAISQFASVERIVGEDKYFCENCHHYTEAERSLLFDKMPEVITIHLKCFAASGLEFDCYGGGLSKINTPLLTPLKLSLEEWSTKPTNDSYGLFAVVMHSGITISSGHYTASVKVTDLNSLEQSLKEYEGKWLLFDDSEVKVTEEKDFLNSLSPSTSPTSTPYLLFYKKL
Kind of test: Binding affinity to recombinant USP1 protein by differential scanning fluorimetry. The note with it: compound 100 µM; 0.03 mg/mL USP1 (Δ1-66, Δ125-138, Δ229-408, Δ608-737); Tm with compound minus Tm with DMSO; read-out: ΔTm (°C). Put shortly:
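Thermal shift readout: ΔTm is the compound-well melting temperature less the DMSO-well value, measured by real-time PCR. Compounds tested at 100 µM final against 0.03 mg/mL truncated USP1 (Δ1-66, Δ125-138, Δ229-408, Δ608-737) in pH 8.0 Tris buffer containing 150 mM NaCl, 2% glycerol, 1 mM DTT.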
Background: DSF heats the sample and reads unfolding from a dye or from intrinsic fluorescence.

Some results are limits rather than exact numbers.

Consider `CNC(=O)c1cc2cnc(-c3c(OC4CC4)ncnc3C3CC3)nc2n1Cc1ccc(-c2nc(C(F)(F)F)cn2C)cc1` [Example 184, 2-(4-cyclopropyl-6-cyclopropoxypyrimidin-5-yl)-N-methyl-7-(4-(1-methyl-4-(trifluoromethyl)-1H-imidazol-2-yl)benzyl)-7H-pyrrolo[2,3-d]pyrimidine-6-carboxamide], for which the GI50 – broadly, the concentration that inhibits growth by half – with UWB1.289 cells is less than 100 nM. Also, at recombinant USP1 protein, the ΔTm (as a rule, the shift of the melting midpoint relative to a reference) at 100 µM was more than 5 °C.

For `COc1ncnc(C2CC2)c1-c1ncc2cc(C(=O)NC3CCN(C)CC3(F)F)n(Cc3ccc(-c4nc(C(F)(F)F)cn4C)cc3)c2n1` (stereo not drawn) [Example 185, 2-(4-cyclopropyl-6-methoxypyrimidin-5-yl)-N-(3,3-difluoro-1-methylpiperidin-4-yl)-7-(4-(1-methyl-4-(trifluoromethyl)-1H-imidazol-2-yl)benzyl)-7H-pyrrolo[2,3-d]pyrimidine-6-carboxamide], the GI50 in the test with UWB1.289 cells was less than 100 nM. For the same molecule, the ΔTm at 100 µM at recombinant USP1 protein is more than 5 °C.

With `CNC(=O)c1cc2cnc(-c3c(Cl)cnn3C)nc2n1Cc1ccc(-c2nc(C(F)(F)F)cn2C)cc1` [Example 186, 2-(4-chloro-1-methyl-1H-pyrazol-5-yl)-N-methyl-7-(4-(1-methyl-4-(trifluoromethyl)-1H-imidazol-2-yl)benzyl)-7H-pyrrolo[2,3-d]pyrimidine-6-carboxamide], in the test on UWB1.289 cells, the GI50 is less than 100 nM. Moreover, the ΔTm at 100 µM at recombinant USP1 protein was more than 5 °C.

Take `CNC(=O)c1cc2cnc(-c3c(OC)ncnc3C3CC3)nc2n1Cc1ccc(-c2nc(C(F)(F)F)cn2[C@@H]2CCN(C)C[C@H]2F)cc1` [Example 187, 2-(4-cyclopropyl-6-methoxypyrimidin-5-yl)-7-(4-(1-((3R,4R)-3-fluoro-1-methylpiperidin-4-yl)-4-(trifluoromethyl)-1H-imidazol-2-yl)benzyl)-N-methyl-7H-pyrrolo[2,3-d]pyrimidine-6-carboxamide]: the GI50 in the test on UWB1.289 cells was less than 100 nM. In addition, at recombinant USP1 protein, the ΔTm at 100 µM was more than 5 °C.

`CNC(=O)c1cc2cnc(-c3c(OC)ncnc3C3CC3)nc2n1Cc1ccc(-n2nc(C(C)(C)O)cc2C)cc1` [Example 188, 2-(4-cyclopropyl-6-methoxypyrimidin-5-yl)-7-(4-(3-(2-hydroxypropan-2-yl)-5-methyl-1H-pyrazol-1-yl)benzyl)-N-methyl-7H-pyrrolo[2,3-d]pyrimidine-6-carboxamide]: in the test on UWB1.289 cells, the GI50 was in the range of 100 to 500 nM. Moreover, the ΔTm at 100 µM at recombinant USP1 protein was more than 5 °C.

As to `CNC(=O)c1cc2cnc(-c3c(OC)ncnc3C3CC3)nc2n1Cc1ccc(-c2nc(C(F)(F)F)cn2[C@H]2CCN(C)C[C@@H]2F)cc1` [Example 189, 2-(4-cyclopropyl-6-methoxypyrimidin-5-yl)-7-(4-(1-((3S,4S)-3-fluoro-1-methylpiperidin-4-yl)-4-(trifluoromethyl)-1H-imidazol-2-yl)benzyl) -N-methyl-7H-pyrrolo [2,3-d]pyrimidine-6-carboxamide], in the test with UWB1.289 cells, the concentration for 50% growth inhibition (GI50) is less than 100 nM. Also, the ΔTm at 100 µM at recombinant USP1 protein is more than 5 °C.

For the molecule `COc1ncnc(C2CC2)c1-c1ncc2cc(C(=O)NC[C@@H](O)C(C)C)n(Cc3ccc(-c4nc(C(F)(F)F)cn4C)cc3)c2n1` [Example 190, (S)-2-(4-cyclopropyl-6-methoxypyrimidin-5-yl)-N-(2-hydroxy-3-methylbutyl)-7-(4-(1-methyl-4-(trifluoromethyl)-1H-imidazol-2-yl)benzyl)-7H-pyrrolo[2,3-d]pyrimidine-6-carboxamide], in the test on UWB1.289 cells, the 50% growth inhibitory concentration (GI50) was less than 100 nM. In addition, the shift in melting temperature (ΔTm) at 100 µM at recombinant USP1 protein was more than 5 °C.

In the case of `COc1ncnc(C2CC2)c1-c1ncc2cc(C(=O)N[C@@H](C)CCO)n(Cc3ccc(-c4nc(C(F)(F)F)cn4C)cc3)c2n1` [Example 191, (S)-2-(4-cyclopropyl-6-methoxypyrimidin-5-yl)-N-(4-hydroxybutan-2-yl)-7-(4-(1-methyl-4-(trifluoromethyl)-1H-imidazol-2-yl)benzyl)-7H-pyrrolo[2,3-d]pyrimidine-6-carboxamide], the GI50 with UWB1.289 cells was less than 100 nM. In addition, the ΔTm at 100 µM at recombinant USP1 protein is more than 5 °C.

As for `CNC(=O)c1cc2cnc(-c3cccc4c3N(C)CC4)nc2n1Cc1ccc(-c2nc(C(F)(F)F)cn2C)cc1` [Example 193, N-methyl-7-(4-(1-methyl-4-(trifluoromethyl)-1H-imidazol-2-yl)benzyl)-2-(1-methylindolin-7-yl)-7H-pyrrolo[2,3-d]pyrimidine-6-carboxamide], in the test with UWB1.289 cells, the GI50 was less than 100 nM. Also, the ΔTm at 100 µM at recombinant USP1 protein is less than 5 °C.

On to `CNC(=O)c1cc2cnc(-c3c(OC)ncnc3C3CC3)nc2n1Cc1ccc(-c2nc(C(F)(F)F)cn2C)c(OC)c1` [Example 194, 2-(4-cyclopropyl-6-methoxypyrimidin-5-yl)-7-(3-methoxy-4-(1-methyl-4-(trifluoromethyl)-1H-imidazol-2-yl)benzyl)-N-methyl-7H-pyrrolo[2,3-d]pyrimidine-6-carboxamide], for which the GI50 with UWB1.289 cells was 100 to 500 nM. Further, on recombinant USP1 protein, the ΔTm at 100 µM was more than 5 °C.

Regarding `[2H]C([2H])([2H])N(C(=O)c1cc2cnc(-c3c(OC)ncnc3C3CC3)nc2n1Cc1ccc(-c2nc(C(F)(F)F)cn2C)cc1)C([2H])([2H])[2H]` [Example 195, 2-(4-cyclopropyl-6-methoxypyrimidin-5-yl)-N,N-bis(methyl-d3)-7-(4-(1-methyl-4-(trifluoromethyl)-1H-imidazol-2-yl)benzyl)-7H-pyrrolo[2,3-d]pyrimidine-6-carboxamide], the 50% growth inhibitory concentration (GI50) in the test on UWB1.289 cells is 100 to 500 nM. Also, the shift in melting temperature (ΔTm) at 100 µM at recombinant USP1 protein was more than 5 °C.

`COc1ncnc(C2CC2)c1-c1ncc2cc(C(=O)N3CC(O)C3)n(Cc3ccc(-c4nc(C(F)(F)F)cn4C)cc3)c2n1` [Example 196, (2-(4-cyclopropyl-6-methoxypyrimid in-5-yl)-7-(4-(1-methyl-4-(trifluoromethyl)-1H-imidazol-2-yl)benzyl)-7H-pyrrolo[2,3-d]pyrimidin-6-yl) (3-hydroxyazetidi n-1-yl)methanone]: the GI50 with UWB1.289 cells was less than 100 nM. On recombinant USP1 protein, the ΔTm at 100 µM was more than 5 °C.

`COc1ncnc(C2CC2)c1-c1ncc2cc(C(=O)NC(C)(C)CO)n(Cc3ccc(-c4nc(C(F)(F)F)cn4C)cc3)c2n1` [Example 197, 2-(4-cyclopropyl-6-methoxypyrimidin-5-yl)-N-(1-hydroxy-2-methylpropan-2-yl)-7-(4-(1-methyl-4-(trifluoromethyl)-1H-imidazol-2-yl)benzyl)-7H-pyrrolo[2,3-d]pyrimidine-6-carboxamide]: the GI50 in the test on UWB1.289 cells is less than 100 nM. Also, the ΔTm at 100 µM at recombinant USP1 protein is more than 5 °C.

In the case of `CNC(=O)c1cc2cnc(-c3c(OC)ncnc3C3CC3)nc2n1Cc1ccc(-n2nc(C(F)(F)F)cc2-c2ccco2)cc1` [Example 198, 2-(4-cyclopropyl-6-methoxypyrimidin-5-yl)-7-(4-(5-(furan-2-yl)-3-(trifluoromethyl)-1H-pyrazol-1-yl)benzyl)-N-methyl-7H-pyrrolo[2,3-d]pyrimidine-6-carboxamide], the GI50 in the test with UWB1.289 cells is 100 to 500 nM. Moreover, the ΔTm at 100 µM on recombinant USP1 protein was more than 5 °C.

On to `COc1ncnc(C2CC2)c1-c1ncc2cc(C(=O)N[C@@H]3CCN(C)[C@H](C)C3)n(Cc3ccc(-c4nc(C(F)(F)F)cn4C)cc3)c2n1` [Example 199, 2-(4-cyclopropyl-6-methoxypyrimidin-5-yl)-N-((2R,4R)-1,2-dimethylpiperidin-4-yl)-7-(4-(1-methyl-4-(trifluoromethyl)-1H-imidazol-2-yl)benzyl)-7H-pyrrolo[2,3-d]pyrimidine-6-carboxamide], for which, in the test on UWB1.289 cells, the GI50 was less than 100 nM. For the same molecule, the ΔTm at 100 µM at recombinant USP1 protein was more than 5 °C.

For `CNC(=O)c1cc2cnc(-c3c(OC)ncnc3C3CC3)nc2n1Cc1ccc(-c2nc(C(F)(F)F)c3n2CCCC3)cc1` [Example 200, 2-(4-cyclopropyl-6-methoxypyrimidin-5-yl)-N-methyl-7-(4-(1-(trifluoromethyl) -5,6,7,8-tetrahydroimidazo[1,5-a]pyridin-3-yl)benzyl)-7H-pyrrolo[2,3-d]pyrimidine-6-carboxamide], the GI50 in the test with UWB1.289 cells was less than 100 nM. Besides, on recombinant USP1 protein, the ΔTm at 100 µM was more than 5 °C.

For `COc1ncnc(C2CC2)c1-c1ncc2cc(C(=O)N[C@H]3CCN(C)[C@H](C)C3)n(Cc3ccc(-c4nc(C(F)(F)F)cn4C)cc3)c2n1` [Example 201, 2-(4-cyclopropyl-6-methoxypyrimidin-5-yl)-N-((2R,4S)-1,2-dimethylpiperidin-4-yl)-7-(4-(1-methyl-4-(trifluoromethyl)-1H-imidazol-2-yl)benzyl)-7H-pyrrolo[2,3-d]pyrimidine-6-carboxamide], the GI50 with UWB1.289 cells was less than 100 nM. The shift in melting temperature (ΔTm) at 100 µM on recombinant USP1 protein was more than 5 °C.

On to `COc1ncnc(C2CC2)c1-c1ncc2cc(C(=O)N[C@H]3CCN(C)CC3(F)F)n(Cc3ccc(-c4nc(C(F)(F)F)cn4C)cc3)c2n1` [Example 202, (S)-2-(4-cyclopropyl-6-methoxypyrimidin-5-yl)-N-(3,3-difluoro-1-methylpiperidin-4-yl)-7-(4-(1-methyl-4-(trifluoromethyl)-1H-imidazol-2-yl)benzyl)-7H-pyrrolo[2,3-d]pyrimidine-6-carboxamide], for which, in the test with UWB1.289 cells, the GI50 was less than 100 nM. Further, the ΔTm at 100 µM on recombinant USP1 protein is more than 5 °C.
